What all share (assay type): cell-based, human
The test system of experiment [1] is collagen 1A1 (COL1A1) gene expression. Nature of the experiment: Collagen 1A1 gene expression in tension-applied three-dimensional artificial skin (real-time PCR). Conditions: artificial skins prepared using means of the present invention; 10 ng/mL TGF-β in assay medium, 48 hours. The protocol: (§1) The artificial skin was such that, on the 6th day of culture, this was replaced with a medium for assay use (Dulbecco's Modified Eagle's Medium containing 1 μM hydrocortisone, 5 μg/mL insulin, and 10% fetal bovine serum). […] After using RNT solution from an RNeasy Plus Mini Kit (manufactured by Qiagen) to dissolve tissue by pulverizing with beads, phenol chloroform was used to remove protein therefrom, following which column purification was carried out as directed by the RNeasy Plus Mini Kit protocol to obtain total RNA.
(§2) SuperScript VILO Master Mix (manufactured by Invitrogen) was used as directed by the attached manual to carry out synthesis of cDNA from the purified total RNA. The synthesized cDNA was mixed with SYBR Premix Ex Taq (manufactured by Takara) and primer mix (a mixture of forward and reverse primers), 12.5 μL of reaction solution was prepared in each well of a 96-well plate for PCR use, and a QuantStudio 12K Flex (Applied Biosystems) was used to carry out real-time PCR. The real-time PCR reaction was such that 40 cycles comprising 95° C. for 30 seconds for initial denaturation, and 95° C. for 5 seconds and 60° C. for 31 seconds for the PCR reaction, were carried out. […]

The test system of experiment [2] is elastin (ELN) gene expression. Nature of the experiment: Elastin gene expression in tension-applied three-dimensional artificial skin (real-time PCR). The following applies: artificial skins prepared using means of the present invention; 10 ng/mL TGF-β in assay medium, 48 hours. The method, then:
as §1, §2

The test system of experiment [3] is hyaluronan synthase (HAS3) gene expression. Nature of the experiment: HAS3 gene expression in tension-applied three-dimensional artificial skin (real-time PCR). Conditions: artificial skin of the present invention; 10 μM ATRA solution on gauze on epidermis for 1 hour, then 5 hours culture (6 hours after addition). The protocol:
The artificial skin was such that, on the 6th day of culture, this was replaced with a medium for assay use (Dulbecco's Modified Eagle's Medium containing 1 μM hydrocortisone, 5 μg/mL insulin, and 10% fetal bovine serum). On the 8th day of culture, gauze that had been impregnated with 0.2% HPC solution or 10 μM ATRA solution was placed on the surface of the epidermis, and this was cultured for 1 hour in a 5% CO2 incubator at 37° C. After 1 hour, the gauze was removed, and this was further cultured for 5 hours in a 5% CO2 incubator at 37° C. Following culture of the artificial skin for 6 hours, the artificial skin was removed from the container in such fashion as to not cause the epidermal tissue to be delaminated therefrom, and a razor was used to cut this in half. After using […] from an RNeasy Plus Mini Kit (manufactured by Qiagen) to dissolve tissue by pulverizing with beads, phenol chloroform was used to remove protein therefrom, following which column purification was carried out as directed by the RNeasy Plus Mini Kit protocol to obtain total RNA.
SuperScript VILO Master Mix (manufactured by Invitrogen) was used as directed by the attached manual to carry out synthesis of cDNA from the purified total RNA. […]

A value given as a limit tells only on which side of the number the result lay.

The results in this text go back to patent publication US20250101356A1, “CONTAINER FOR PRODUCING TENSION-APPLIED THREE-DIMENSIONAL ARTIFICIAL SKIN AND PRODUCTION METHOD THEREOF” (RIKEN, priority 2022, published 2025).

On to TGF-β, for which the “increase of COL1A1 gene expression as compared with the situation when unstimulated” value in experiment [1] is recorded as ≥ 1.5 ×. Besides, the “increase of elastin (ELN) gene expression as compared with the situation when unstimulated” value in experiment [2] is listed as ≥ 3 ×.
In the case of `CC1=C(/C=C/C(C)=C/C=C/C(C)=C/C(=O)O)C(C)(C)CCC1` [ATRA], the “increase of HAS3 gene expression as compared with the situation when unstimulated” value in experiment [3] is reported as ≥ 3 ×.
